One compound from publication PMC12067741, “Inhibition of SOD1 trimerization is a novel drug target for ALS disease” (Translational Neurodegeneration, 2025) can be followed below.

Data set [1] in a line: Pharmacokinetics in mice (compound screening, IV/PO). The class given is in vivo, mouse. The settings on record: mouse (compound screening), PO3, 20 mg/kg. How it is done: Fig. S1. Optimized inhibitor reduces SOD1 aggregation. a, Mutant SOD1s induced WT-SOD1 aggregation. Testing the selected chemicals to check the inhibitory effect on SOD1 aggregation .HEK293 cells were transfected with MT-SOD1 vectors (A4V, G 93 A) and treated with selected chemicals (5 mM). After incubation, transfected cells were harvested with TNNI buffer and fixed with 0.04% glutaraldehyde (Glu) for 30min. Samples were separated using SDS-PAGE. b-c, PRG-A-04 inhibited SOD1 inclusions in SK-N-SH cells. (b) Cells expressing MT-SOD1 vectors were treated with PRG-A-04 ([…]) for 24 hr. After incubation, cells were fixed with 4 % PFA and observed under the fluorescence microscope. (c) Cells with SOD1 inclusions (white arrows; strong intensity of SOD1) were counted by photomicrographs and the percentages were shown with standard deviation (SD). For cell counting, ten fluorescence images were randomly selected. Counting of cells were performed by three independent observers, who were blinded to transfection or chemical treatment group; two-tailed Student’s t-test. NS; Not significant, ****P < 0.001, d, PRG-A- […]
degradationin blood as well as gastro-intestinal tract.IV; intravenous injected group, PO; Per Os administrated group e, […]
show cytotoxicity. To know the toxic effect of PRG-A-04 , human normal fibroblast (f) and neuron cells (g) were incubated with PRG -A-04 for 48 hr dose dependently and measured the viability through MTT assay .“Con” means Dimethyl sulfoxide (DMSO) -treated control . The data are normalized to DMSO-treated cells. n=3 independent experiments; two-tailed Student’s t-test.NS; Not significant, *P < 0.05, **P < 0.01, ***P < 0.005.

A short description of data set [2]: Metabolic stability in liver microsomes. In kind it is in vitro ADME. The settings on record: human liver microsomes. Background: Liver microsomes are vesicles of endoplasmic reticulum, rich in cytochrome P450 enzymes.
A short description of data set [3]: Plasma stability. The settings on record: beagle dog plasma, after 120 min of incubation. The class given is in vitro ADME.

By bioavailability is commonly meant dose-corrected exposure relative to a reference, in per cent. Higher therefore signals much systemic uptake.

In turn, `COc1cc(C=CCOC2Cc3cc4ccc(=O)oc4cc3OC2(C)C)ccc1[N+](=O)[O-]` (stereo not drawn) [PRG-A-04] registered a bioavailability in data set [1] of 63.78%. The “extent of metabolism in liver microsomes” value in data set [2] is “moderately metabolized”. Moreover, the “stability in plasma” value in data set [3] is recorded as “stable”.
